The record followed here is ChEMBL document CHEMBL5370527, “Hit-to-lead optimization of a pyrazinylpiperazine series against Leishmania infantum and Leishmania braziliensis” (Eur J Med Chem, 2023).

Series [1] in a line: Selectivity index, ratio of CC50 for cytotoxicity against human THP-1 cells assessed as reduction in cell viability to IC50 for antileishmanial activity against […] stage of Leishmania braziliensis MHOM/BR/75/M2904 infected in human THP-1 cells assessed as parasite growth inhibition. It is filed as toxicity, cell-based. Particulars: read-out: Ratio CC50/IC50.
Series [2] is described as follows: Selectivity index, ratio of CC50 for cytotoxicity against human THP-1 cells assessed as reduction in cell viability to IC50 for antileishmanial activity against […] stage of Leishmania infantum MHOM/BR/1974/PP75 infected in human THP-1 cells assessed as parasite growth inhibition. It is filed as toxicity, cell-based. The conditions noted are these: read-out: Ratio CC50/IC50.

A further series deals with Leishmania infantum. As to the kind of experiment: Antileishmanial activity against […] stage of Leishmania infantum MHOM/BR/1974/PP75 infected in human THP-1 cells assessed as parasite growth inhibition incubated for 72 hrs by microplate reader analysis. It is filed as functional, organism-based. Particulars: MHOM/BR/1974/PP75, THP-1, 72 h.
A further series has as its system Leishmania braziliensis. As to the kind of experiment: Antileishmanial activity against […] stage of Leishmania braziliensis MHOM/BR/75/M2904 infected in human THP-1 cells assessed as parasite growth inhibition incubated for 72 hrs by microplate reader analysis. It is filed as functional, organism-based. The conditions noted are these: MHOM/BR/75/M2904, THP-1, 72 h.

Series [3] can be described thus: Cytotoxicity against human THP-1 cells assessed as reduction in cell viability incubated for 72 hrs by alamarblue staining based analysis. It is filed as toxicity. In general terms: The colour change of resazurin is a common sign of viable cells or microbes.
For the next series, the system named is Trypanosoma cruzi. As to the kind of experiment: Antitrypanosomal activity against Trypanosoma cruzi Tulahuen infected in mouse L929 cells assessed as parasite growth inhibition incubated for 96 hrs. It is filed as functional, organism-based. The conditions noted are these: L929, 96 h.
Series [4] in a line: Cytotoxicity against human HepG2 cells assessed as reduction in cell viability incubated for 4 days by celltiter-glo assay. It is filed as toxicity, cell-based. The conditions noted are these: time 4 day. Background: Cellular ATP, detected with luciferase, serves as a proxy for viable cell number.
Series [5] concerns Leishmania donovani. As to the kind of experiment: Antileishmanial activity against amastigote form of Leishmania donovani infected in HepG2 cells assessed as inhibition of parasite growth incubated for 72 hrs by Alamar blue staining based assay. It is filed as functional, organism-based. Particulars: HepG2, 72 h.
Series [6] concerns Leishmania donovani. In words: Inhibition of Leishmania donovani at 10 uM GSK-3 by kinase glo assay relative to control.

Broadly, the IC50 is the concentration that gives 50% inhibition. One may read the CC50 as the concentration at which the toxic effect on the cells reaches its halfway point. As usually defined, the inhibition is the drop in the measured response relative to a control, in per cent. Read a low inhibition as little suppression.

As to `O=C(c1ccccc1)N1CCN(c2cnccn2)CC1`, the selectivity ratio amounted to 29 in series [1] and 11 in series [2]. Besides, the figures for the IC50 with Leishmania infantum, in the series on Leishmania braziliensis and in the series with Trypanosoma cruzi were 63.1 µM, 24.7 µM and more than 175 µM, respectively. Also, the CC50 at 72 h in [3] was 716 µM.

For `O=C(c1ccc(C(F)(F)F)cc1)N1CCN(c2cnccn2)CC1`, the selectivity ratio in series [1] worked out at 8; in [2], 5. Besides, the results for the IC50 in the series on Leishmania infantum, with Leishmania braziliensis and in the series with Trypanosoma cruzi were 84.5 µM, 55.7 µM and more than 175 µM, respectively. Also, the CC50 at 72 h in series [3] was found to be 421 µM.

`O=C(c1ccc([N+](=O)[O-])cc1)N1CCN(c2cnccn2)CC1`: the selectivity ratio in series [1] worked out at 17; in [2] it was 13. For the same compound, the values for the IC50 in the series with Leishmania infantum, in the series on Leishmania braziliensis and in the series on Trypanosoma cruzi were 221 µM, 161 µM and more than 175 µM, respectively. In addition, the cytotoxic concentration (CC50) at 72 h in series [3] amounted to 2810 µM.

`O=C(c1cccc(C(F)(F)F)n1)N1CCN(c2cnccn2)CC1`: the selectivity ratio was 0.5 in [1] and 0.2 in series [2]. For the same compound, the values for the IC50 with Leishmania infantum, with Leishmania braziliensis and in the series on Trypanosoma cruzi were 7430 µM, 3540 µM and more than 175 µM, respectively. Also, the CC50 at 72 h in series [3] stood at 1700 µM.

Regarding `O=C(c1ccc(O)cc1)N1CCN(c2cnccn2)CC1`, the selectivity ratio in series [1] was found to be 141; in [2] it was 346. Moreover, the IC50 in the series with Leishmania infantum is 3.1 µM; in the series on Leishmania braziliensis it was 7.6 µM; in the series with Trypanosoma cruzi, more than 175 µM. Moreover, the CC50 at 72 h in series [3] came out at 1070 µM.

With `COc1ccc(Cl)cc1C(=O)N1CCN(c2cnccn2)CC1`, in series [1], the selectivity ratio amounted to 130. For the same compound, the IC50 was 27.5 µM with Leishmania infantum, 7.8 µM with Leishmania braziliensis and more than 175 µM in the series with Trypanosoma cruzi. For the same compound, the half-maximal cytotoxic concentration (CC50) at 72 h in series [3] amounted to 1010 µM.

As to `O=C(c1ccc(O)c(Cl)c1)N1CCN(c2cnccn2)CC1`, the CC50 at 96 h in series [4] was more than 100 µM. In addition, the IC50 in the series with Leishmania donovani [5] is 0.31 µM; in the series with Leishmania infantum, 11.9 µM; with Leishmania braziliensis, 11.7 µM; in the series with Trypanosoma cruzi, more than 175 µM. Also, the selectivity ratio in [1] and in [2] was 46 each time. In addition, in the series with Leishmania donovani [6], the inhibition was determined as 1.65%. In series [3], the CC50 at 72 h amounted to 542 µM.

As to `O=C(c1ccc(OC(F)(F)F)cc1)N1CCN(c2cnccn2)CC1`, the selectivity ratio in [1] came to 49; in [2], 115. For the same compound, the IC50 with Leishmania infantum was 7.5 µM; in the series on Leishmania braziliensis, 17.5 µM; in the series with Trypanosoma cruzi it was more than 175 µM. Further, in series [3], the CC50 at 72 h is 865 µM.

For `COc1ccc(C(=O)N2CCN(c3cnccn3)CC2)cc1`, the selectivity ratio in series [1] is 188; in series [2], 422. Moreover, the figures for the IC50 in the series with Leishmania infantum, in the series on Leishmania braziliensis and in the series on Trypanosoma cruzi were 4.5 µM, 10.1 µM and more than 175 µM, respectively. The cytotoxic concentration (CC50) at 72 h in series [3] was determined as 1900 µM.

As to `COc1cc(F)ccc1C(=O)N1CCN(c2cnccn2)CC1`, the selectivity ratio worked out at 104 in series [1] and 40 in series [2]. Besides, the results for the IC50 in the series with Leishmania infantum, in the series with Leishmania braziliensis and in the series with Trypanosoma cruzi were 34.3 µM, 13.1 µM and more than 175 µM, respectively. Further, the CC50 at 72 h in [3] is 1360 µM.

As to `O=C(c1cccc(O)c1)N1CCN(c2cnccn2)CC1`, the selectivity ratio in series [1] is 156; in series [2], 87. Besides, the IC50 in the series on Leishmania infantum was 25.3 µM; in the series with Leishmania braziliensis it was 14.1 µM; with Trypanosoma cruzi, more than 175 µM. Further, the CC50 at 72 h in [3] came out at 2200 µM.

For the compound `O=C(c1ccc(-n2cnnn2)cc1)N1CCN(c2cnccn2)CC1`, the values for the selectivity ratio in [1] and in series [2] were 293 and 449, respectively. In addition, the half-maximal inhibitory concentration (IC50) in the series with Leishmania infantum is 5.8 µM; in the series on Leishmania braziliensis, 8.9 µM; in the series with Trypanosoma cruzi it was more than 175 µM. Also, the CC50 at 72 h in series [3] worked out at 2610 µM.

On to `O=C(c1ccccc1O)N1CCN(c2cnccn2)CC1`, for which the selectivity ratio was 31 in series [1] and 45 in series [2]. In addition, the IC50 is 58.8 µM in the series on Leishmania infantum, 85.2 µM in the series on Leishmania braziliensis and more than 175 µM in the series on Trypanosoma cruzi. Further, the CC50 at 72 h in series [3] was determined as 2620 µM.

As to `O=C(c1cccc(Cl)c1)N1CCN(c2cnccn2)CC1`, the results for the selectivity ratio in series [1] and in series [2] were 7 and 6, respectively. Further, the IC50 was 113 µM in the series with Leishmania infantum, 93.4 µM in the series with Leishmania braziliensis and more than 175 µM in the series with Trypanosoma cruzi. Also, in [3], the CC50 at 72 h amounted to 662 µM.

Turning to `O=C(c1ccc(C(F)(F)F)nc1)N1CCN(c2cnccn2)CC1`, the selectivity ratio is 327 in series [1] and 298 in [2]. Also, the IC50 in the series with Leishmania infantum is 35.2 µM; in the series on Leishmania braziliensis, 32.1 µM; in the series with Trypanosoma cruzi it was more than 175 µM. For the same compound, the CC50 at 72 h in series [3] was 10500 µM.
